Data set [1] concerns SW48-PAR cells. Kind of data set: MTT cell viability assay, SW48-PAR. It counts as cell-based, human. To be noted: for cell viability: replicates, in % (unit assumed). The source says: (§1) Pancreatic cancer cell lines PANC-1 (cat. no. CRL-1469), SW1990 (cat. no. CRL-2172) were obtained from ATCC (American Type Culture Collection). Genetically modified isogeneic colon cancer cell lines SW48-PAR and SW48-G12D were obtained from Horizon Discovery Ltd. PANC-1 (human pancreatic cancer, KRas^G12D), SW1990 (human pancreatic cancer, KRas^G12D), SW48-PAR (human colon cancer; parental cell line KRas^wt), and SW48-G12D (human colon cancer; heterozygous knockin of the KRas^G12D activating mutation) cancer cell lines were cultured in Roswell Park Memorial Institute Medium (RPMI; Biosera, Nuaille, France), supplemented with 10% heat-inactivated Fetal Bovine Serum (FBS; Biosera), and with 1% Penicillin/Streptomycin (Biosera). Cells were cultured in sterile T75 flasks with ventilation cap (Sarstedt, Nümbrecht, Germany) at 37 °C in a humidified atmosphere with 5% CO2 in ESCO CelCulture Incubator (ESCO, Friedberg, Germany). Manipulations with the cells were performed in biosafety cabinet (laminar) ESCO Sentinel Gold class II model AC2-4E8 (ESCO).
(§2) After standard harvesting of the cells by trypsin-EDTA (Biosera), 7 × 10^3 cells per well depending on the cell line, were seeded in serum-containing growth medium to 96-well plates and incubated. After 24 h, cells were treated with various concentrations of fragments (32 nM–100 μM), dissolved in serum-containing medium, and incubated under standard conditions. Control wells were treated with medium. Final concentration of serum was 2.5%, final concentration of DMSO was 0.2%. Treatment was for 72 h continuously.
(§3) Afterwards, MTT assay was performed in order to determine cell viability, by adding 20 μL of MTT solution (5 mg/mL in PBS) to each well and after 2 h of incubation at 37 °C, the supernatant was removed. The formazan crystals were dissolved in 100 μL of a 1:1 solution of DMSO (Sigma-Aldrich):EtOH (Molar Chemicals) and the absorbance was measured after 15 min at λ = 570 nm by using a microplate reader (BioTek 800TS, Agilent, Santa Clara, CA, USA). The IC50 values of the fragments were calculated using GraphPad Prism 6 (GraphPad Software, San Diego, CA, USA). The experiments were done in triplicate, and each experiment was repeated two times.

Data set [2] relates to SW1990 cells. Kind of data set: MTT cell viability assay, SW1990. Type of data set: cell-based, human. The following applies: for cell viability: replicates, in % (unit assumed).
Text: as §1, §2, §3

Molecules are shown by their SMILES. Values joined by “and” are separate entries in the source; they are usually repeats but may differ in a detail not shown here. Equal entries are not always repeated.

As for `Cc1ncc(CO)c(CNC(=O)CCC2(C)N=N2)c1O` [PhP072, Cc1ncc(CO)c(c1O)CNC(=O)CCC2(C)N=N2], the Antiproliferative effect result in data set [1] (MTT, 72 h) is “antiproliferative activity”. Further, the cell viability is 110.532 and 99.0425 and 106.761 and 103.567 and 100.905 in data set [1] ([PhP072] 3.2e-8 M); 106.815 and 103.774 and 96.677 and 105.91 and 101.544 and 99.8403 in data set [1] ([PhP072] 1.6e-7 M); 103.098 and 102.084 and 99.3805 and 101.65 and 100.905 and 100.16 in data set [1] ([PhP072] 8e-7 M); 97.3529 and 105.125 and 97.3912 and 92.7061 and 92.8126 in data set [1] ([PhP072] 4e-6 M); 98.3667 and 91.9459 and 92.9597 and 81.7386 and 78.0118 and 75.2433 in data set [1] ([PhP072] 2e-5 M); 78.0907 and 76.0631 and 71.332 and 66.8313 and 68.322 and 64.4887 in data set [1] ([PhP072] 0.0001 M). The cell viability in data set [2] (SW1990, [PhP072] 3.2e-8 M) is 101.695 and 98.3609 and 102.528 and 107.265 and 99.8137 and 96.5538; in data set [2] (SW1990, [PhP072] 1.6e-7 M), 103.195 and 101.49 and 102.515 and 96.4606; in data set [2] (SW1990, [PhP072] 8e-7 M), 103.528 and 101.528 and 95.5272 and 94.039 and 99.4411 and 93.387; in data set [2] (SW1990, [PhP072] 4e-6 M), 101.861 and 97.8608 and 97.1941 and 99.9069 and 97.2989 and 95.6224; in data set [2] (SW1990, [PhP072] 2e-5 M) it was 90.5265 and 81.8586 and 88.0261 and 89.1956 and 90.8722 and 79.3227; in data set [2] (SW1990, [PhP072] 0.0001 M) it was 62.6893 and 57.5219 and 66.8565 and 62.4641 and 63.023 and 60.1356. The IC50 in data set [2] (Homo sapiens, read-out: IC50, antiproliferative activity, SW1990, MTT, 72 h) is 17.2 µM.

For the origin of these results see article PMC11292009, “Mapping protein binding sites by photoreactive fragment pharmacophores” (Communications Chemistry, 2024).
